# Assay results: publication PMC10017042 (Science Advances, 2023)
# “And” between values parts separate entries of the source, which are not always exact repeats. Equal entries are not always repeated. Where two headings read alike, the source gives them in different places.
# How the values were obtained:
# [1] = set-up: method as in PMID 22837004; conditions: assumed for the sampling design; fasted first dose; cited from earlier work
# BAF complex = BAF complex target gene expression (IL-10, SOCS3, CBX7; control B-ACT) by RT-qPCR in participants; format: in vivo, human
# Text: We reasoned that the effect on the expression of these gene targets at later time points (days 14 and 42) would be less useful as specific biomarker of BAF complex inhibition due to treatment interruptions and potential induction via other pathways. […] These findings are consistent with, and might be the consequence of, the generally lower plasma pyrimethamine Ctrough in participants that received the combined intervention regimen compared to those that received solely pyrimethamine.
# RT-qPCR reactions were conducted using GoTaq qPCR Master Mix (Promega) following the manufacturer’s protocol. The following thermal cycling protocol was used for amplification: 3 min at 95°C, followed by 40 cycles of 95°C for 10 s and 60°C for 30 s. Expression data were calculated using the 2^−∆∆Ct methodology ([73]). Cyclophilin A was used as a housekeeping gene for the analysis. The list of primers is available in table S9.
# HIV-1 [2] = conditions: for Median fold change in CA US HIV-1 RNA from baseline: pyrimethamine monotherapy excluding LUNA-10 who stopped
# Description: Because of low cell numbers in the baseline sample, LUNA-06 (combination arm, participant stopped at day 7) was excluded from this primary end point analysis.
# For quantification of CA US HIV-1 RNA, CD4^+ T cells were isolated from peripheral blood mononuclear cells (PBMCs) by negative selection using EasySep Human CD4^+ T Cell Enrichment Cocktail ([…] Technologies). Isolation of CD4^+ T cells was performed on ice or at 4°C (unless indicated otherwise by the manufacturer). Approximately 1.5 × 10^6 CD4^+ T cells were lysed in triplicate with TRI reagent. Total RNA was isolated by the phenol/chloroform isolation method following the manufacturer’s instructions. A minimum of 150 ng of total RNA was deoxyribonuclease (DNase)–treated following the manufacturer’s instructions (DNase I, Amplification Grade, Invitrogen), and complementary DNA (cDNA) synthesis was performed in duplicate with SuperScript II (Invitrogen) following the manufacturer‘s instructions. Absolute quantification of CA US HIV-1 RNA was performed following a modified version of Pasternak et al. methodology ([72]). Briefly, the first round of nested amplification was performed in a final volume of 25 μl using 10 μl of cDNA, 2.5 μl of 10× PCR buffer (Life Technologies), 1 μl of 50 mM MgCl2 (Life Technologies), 1 μl of 10 mM deoxynucleotide triphosphate (dNTP) (Life Technologies), 0.075 μl of 100 μM US forward primer, 0.075 μl of 100 μM US reverse 1 primer, and 0.2 μl of Platinum Taq polymerase (Life Technologies) at 95°C for 5 min, followed by 15 cycles at 95°C for 30 s, 55°C for 30 s, and 72°C for […]. The second round of amplification was performed in a final volume of 25 μl using 2 μl of preamplified cDNA, 2.5 μl of […] PCR buffer (Life Technologies), 1 μl of 50 mM MgCl2 (Life Technologies), 1 μl of 10 mM dNTPs (Life Technologies), 0.05 μl of 100 μM US forward primer, 0.05 μl of 100 μM US reverse 2 primer, 0.0375 μl of US probe, and 0.2 μl of Platinum Taq polymerase (Life Technologies) at 95°C for 5 min, followed by 45 cycles at 95°C for 30 s and 60°C for 1 min. The list of primers and probe is available in table S9. The absolute number of US copies in the PCR was calculated using a standard curve ranging from 2 to 512 copies of a plasmid containing the full-length HIV-1 genome (pNL4.3.Luc.R-E-). […] The quantity of CA US HIV-1 RNA was expressed as the number of copies per 150 ng of input RNA in reverse transcription.
# The measurements related to the end points CA US HIV-1 RNA, MS HIV-1 RNA, plasma HIV-1 RNA, and drug plasma levels were described as median with IQR or full range. […] The fold change difference per study arm from pretreatment CA US HIV-1 RNA levels to the time points 6 hours, day 14, and day 42 after first dosing was calculated by adding up the fold change per individual divided by the total number of measurements available per time point. We analyzed the primary end point by a generalized estimating equation model to evaluate whether any difference in the CA US HIV-1 RNA existed at any time point during the trial in any of the three interventional arms compared to the control arm. An interaction term of time and treatment was included. […] The difference between the observed and expected amount of CA US HIV-1 RNA was calculated, and combination therapy was considered synergistic if the difference and its 95% confidence interval were >0. Because of the number of participants in this pilot, all secondary end points were exploratory.
# [3] = Clinical safety: adverse events (CTCAE version 4.0) and treatment adjustments; format: in vivo, human
# Description: Hematological parameters and kidney and liver function were monitored before treatment and on days 7, 14, and 42. At each study visit, participants were clinically assessed by the study physician and safety assessments were performed. All participant-reported AE and SAE were evaluated in relation to VPA and pyrimethamine. Severity was graded according to the Common Terminology Criteria for Adverse Events (CTCAE) version 4.0. In the study protocol, a number of stopping rules were defined including a prespecified interim analysis after the inclusion of 14 participants focusing on the number of participants discontinuing study medication during the intervention phase, CD4^+ T cell count <200 cells/μl, possibly drug-related SAE/AE ≥ grade 4, or AIDS-related illness (Centers for Disease Control category C events).
# HIV-1 [4] = system: HIV-1
# Description: To achieve a constant and the earliest Tmax possible, participants received their first dose of the intervention regimen on day 0 in a fasted state. On day 0, cART and study medication intake were taken under direct supervision of the study staff. The 2-week intervention phase was followed by a 4-week post-intervention phase. Overall, participation involved 11 study visits. To obtain an additional post-intervention phase measurement for the inducible HIV-1 reservoir size, the study was amended and participants were asked to give written consent to an extra blood draw after the 4-week post-intervention phase ended. Plasma HIV-1 RNA levels (COBAS TaqMan; Roche, Basel, Switzerland; LOQ, 20 copies/ml) were monitored at all 11 visits. CD4^+ T cell counts were determined at screening, at the start and end of the intervention phase (days 0 and 14), at day 42, and at the post-intervention phase (≥day 42).
# [5] = day 0, 6 hours after first dose relative to pretreatment, arm median
# [6] = individual participants, one value each, listed as PYR
# [7] = individual participants, one value each, below LOQ imputed as 16, listed as PYR
# [8] = individual participants, one value each, /N, /P suffix not kept
smiles,measurement,setting,value
CCc1nc(N)nc(N)c1-c1ccc(Cl)cc1 [pyrimethamine],Tmax,[1],approximately 4 hours
same,"Fold-induction in B-ACTIN gene expression at Day 0, 6 hours relative to Day 0, pretreatment","BAF complex; control gene, individual participants, one value each, listed as PYR",1.29 and 1.51 and 0.82 and 0.94 (2×) and 0.86 and 1.04
same,Median fold increase in CBX7 gene expression,BAF complex; [5],1.68 fold
same,Median fold increase in IL-10 gene expression,BAF complex; [5],2.55 fold
same,Median fold increase in SOCS3 gene expression,BAF complex; [5],2.53 fold
same,"Fold-induction in CBX7 gene expression at Day 0, 6 hours relative to Day 0, pretreatment",BAF complex; [6],1.68 and 1.12 and 12.42 and 4.23 and 2.02 and 1.25 and 1.03
same,"Fold-induction in IL-10 gene expression at Day 0, 6 hours relative to Day 0, pretreatment",BAF complex; [6],2.24 and 2.74 and 1.48 and 1.74 and 6.66 and 6.4 and 2.54
same,"Fold-induction in SOCS3 gene expression at Day 0, 6 hours relative to Day 0, pretreatment",BAF complex; [6],2.52 and 2.27 and 0.60 and 4.59 and 5.35 and 1.14 and 3.27
same,Mean fold change in CA US HIV-1 RNA,"HIV-1 [2]; 6 hours after first dose, arm mean",2.11 fold
same,PLWH with increased CA US HIV-1 RNA (responders),HIV-1 [2]; 6 hours after the first dose,six of seven
same,Median fold change CA US HIV-1 RNA,"HIV-1 [2]; after 6 hours, the two arms exposed to pyrimethamine pooled (with and without VPA)",1.8 fold
same,"Median fold change in CA US HIV-1 RNA (normalized to day 0, 0 hours)","HIV-1 [2]; day 0, t = 0 hours (pretreatment baseline, normalisation point)",1 fold
same,"Median fold change in CA US HIV-1 RNA (normalized to day 0, 0 hours)","HIV-1 [2]; day 0, t = 6 hours after first dose, arm median, PLWH on cART, oral PYR 200 mg day 1 then 100 mg once daily, VPA 30 mg/kg per day",2.1073 fold
same,"Median fold change in CA US HIV-1 RNA (normalized to day 0, 0 hours)","HIV-1 [2]; day 14 (end of treatment), arm median, PLWH on cART",1.9 fold
same,"Median fold change in CA US HIV-1 RNA (normalized to day 0, 0 hours)","HIV-1 [2]; day 14 (end of treatment), arm median, PLWH on cART, listed as Pyrimethamine",1.9129 fold
same,Median fold change in CA US HIV-1 RNA from baseline,HIV-1 [2]; day 14,1.8 fold
same,"Median fold change in CA US HIV-1 RNA (normalized to day 0, 0 hours)","HIV-1 [2]; day 42 (28 days after end of treatment), arm median, PLWH on cART",1.7 fold
same,"Median fold change in CA US HIV-1 RNA (normalized to day 0, 0 hours)","HIV-1 [2]; day 42 (28 days after end of treatment), arm median, PLWH on cART, listed as Pyrimethamine",1.6775 fold
same,Median fold change in CA US HIV-1 RNA from baseline,HIV-1 [2]; day 42,1.6 fold
same,"CA US HIVRNA copies/150 ng Total RNA Day 0, 6 hours",HIV-1 [2]; [7],"125,01 copies/150 ng Total RNA and 126,50 copies/150 ng Total RNA and 51,31 copies/150 ng Total RNA and 94,04 copies/150 ng Total RNA and 39,82 copies/150 ng Total RNA and 55,52 copies/150 ng Total RNA and 96,01 copies/150 ng Total RNA"
same,CA US HIVRNA copies/150 ng Total RNA Day 14,HIV-1 [2]; [7],"114,91 copies/150 ng Total RNA and 111,02 copies/150 ng Total RNA and 74,67 copies/150 ng Total RNA and 54,10 copies/150 ng Total RNA and 42,33 copies/150 ng Total RNA and 62,36 copies/150 ng Total RNA and 111,26 copies/150 ng Total RNA"
same,CA US HIVRNA copies/150 ng Total RNA Day 42,HIV-1 [2]; [7],"85,80 copies/150 ng Total RNA and 54,17 copies/150 ng Total RNA and 82,71 copies/150 ng Total RNA and 69,81 copies/150 ng Total RNA and 29,28 copies/150 ng Total RNA and 101,16 copies/150 ng Total RNA and 84,39 copies/150 ng Total RNA"
same,"CA US HIVRNA copies/150 ng Total RNA Day 0, pretreatment","HIV-1 [2]; individual participants, one value each, pretreatment baseline, below LOQ imputed as 16, listed as PYR","32,60 copies/150 ng Total RNA and 68,92 copies/150 ng Total RNA and 24,35 copies/150 ng Total RNA and 49,43 copies/150 ng Total RNA and 16,00 copies/150 ng Total RNA and 79,98 copies/150 ng Total RNA and 51,15 copies/150 ng Total RNA"
same,Adverse events experienced on pyrimethamine (monotherapy and combination arms) of all AEs,[3]; 6-week study duration,84 of 103
same,Grade 3 adverse events (number),[3]; 6-week study duration,two
same,Participants who stopped treatment,"[3]; 14-day intervention, seven participants per arm",one
same,Induction of plasma viremia,HIV-1 [4]; day 1 time point,no evidence that pyrimethamine induced plasma viremia
same,Proportion of samples with plasma HIV-1 RNA above the assay detection limit,"HIV-1 [4]; during the study at the fixed measurements, those with pyrimethamine exposure",22.2%
same,Plasma HIV-1 RNA in the participants not remaining below LOQ,"HIV-1 [4]; entire 6-week trial period, two on VPA, one on pyrimethamine, one on combination",< 50 copies/ml
same,"Plasma HIV-1 RNA, Day 0, 6hr",HIV-1 [4]; [8],< 20
same,"Plasma HIV-1 RNA, Day 1",HIV-1 [4]; [8],< 20
same,"Plasma HIV-1 RNA, Day 7",HIV-1 [4]; [8],< 20
same,"Plasma HIV-1 RNA, Day 10",HIV-1 [4]; [8],< 20
same,"Plasma HIV-1 RNA, Day 14",HIV-1 [4]; [8],< 20
same,"Plasma HIV-1 RNA, Day 15",HIV-1 [4]; [8],< 20
same,"Plasma HIV-1 RNA, Day 21",HIV-1 [4]; [8],< 20
same,"Plasma HIV-1 RNA, Day 42",HIV-1 [4]; [8],< 20
same,"Plasma HIV-1 RNA, Day 28","HIV-1 [4]; individual participants, one value each, /N, /P suffix not kept, listed as PYR",< 20 (6×) and 20
same,"Plasma HIV-1 RNA, Day 0, 0hr","HIV-1 [4]; individual participants, one value each, pretreatment, /N, /P suffix (genome not detected / detected below quantitation) not kept",< 20
